# Target: T1, ATPase family AAA domain-containing protein 2 (Homo sapiens, UniProt Q6PL18)
# T1 sequence (Q6PL18 whole entry): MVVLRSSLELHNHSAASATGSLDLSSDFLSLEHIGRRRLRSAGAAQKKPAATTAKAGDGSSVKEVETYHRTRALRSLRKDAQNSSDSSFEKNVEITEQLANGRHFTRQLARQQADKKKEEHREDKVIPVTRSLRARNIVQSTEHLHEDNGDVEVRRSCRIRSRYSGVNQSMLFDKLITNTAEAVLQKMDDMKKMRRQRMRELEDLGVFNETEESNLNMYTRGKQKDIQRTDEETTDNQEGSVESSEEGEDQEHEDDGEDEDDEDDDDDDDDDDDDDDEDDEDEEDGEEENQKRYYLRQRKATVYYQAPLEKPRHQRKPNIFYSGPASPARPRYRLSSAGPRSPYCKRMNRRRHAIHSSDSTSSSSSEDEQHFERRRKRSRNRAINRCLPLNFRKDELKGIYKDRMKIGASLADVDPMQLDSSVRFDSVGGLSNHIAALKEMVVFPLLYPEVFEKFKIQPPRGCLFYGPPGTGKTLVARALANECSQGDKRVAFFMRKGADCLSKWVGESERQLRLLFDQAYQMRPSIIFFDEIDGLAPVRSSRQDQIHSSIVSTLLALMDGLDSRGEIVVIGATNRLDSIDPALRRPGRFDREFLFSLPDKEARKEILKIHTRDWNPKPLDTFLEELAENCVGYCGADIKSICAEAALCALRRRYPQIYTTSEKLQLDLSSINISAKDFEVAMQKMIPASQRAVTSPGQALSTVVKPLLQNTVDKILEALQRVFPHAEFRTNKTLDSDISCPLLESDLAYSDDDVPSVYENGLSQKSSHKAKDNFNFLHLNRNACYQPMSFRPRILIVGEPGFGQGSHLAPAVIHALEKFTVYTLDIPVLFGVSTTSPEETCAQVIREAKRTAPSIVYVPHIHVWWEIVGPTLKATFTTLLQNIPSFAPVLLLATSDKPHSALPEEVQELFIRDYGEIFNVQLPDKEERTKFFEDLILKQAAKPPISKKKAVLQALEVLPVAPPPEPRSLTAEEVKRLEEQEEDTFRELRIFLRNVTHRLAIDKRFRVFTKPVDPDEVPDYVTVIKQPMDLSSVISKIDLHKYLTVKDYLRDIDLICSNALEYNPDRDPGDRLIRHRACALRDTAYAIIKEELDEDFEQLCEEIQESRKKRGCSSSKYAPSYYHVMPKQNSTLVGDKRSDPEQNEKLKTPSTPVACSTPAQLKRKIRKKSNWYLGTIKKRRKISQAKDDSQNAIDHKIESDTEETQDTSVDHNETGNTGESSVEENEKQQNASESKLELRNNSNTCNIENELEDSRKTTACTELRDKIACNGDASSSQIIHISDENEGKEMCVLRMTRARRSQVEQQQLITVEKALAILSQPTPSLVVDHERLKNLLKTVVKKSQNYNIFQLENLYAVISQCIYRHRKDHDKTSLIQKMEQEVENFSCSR
# Assay: Binding affinity to human ATAD2 (979 to 1108 aa) expressed in Escherichia coli BL21 (DE3) by SOFAST-HMQC NMR spectroscopy
row,Kd [µM],Compound
1,600,Cc1cc2c(cc1N)n(C)c(=O)n2C
2,350,Nc1cccc(-c2n[nH]c(-c3ccccc3)n2)c1
